Experimental data published in US20070249655A1, “4-Substituted-1,5-Dihydro-Pyrido[3,2-B]Indol-2-Ones” (priority 2004, published 2007).
Like-named read-outs stand apart in the source and are kept apart here.

Assays:
[1] = system: wild type laboratory HIV strain (HIV-1 strain LAI); assay: Antiviral cellular assay (MT4 cells, MTT), wild type; format: cell-based
Experimental: The compounds of the present invention were examined for anti-viral activity in a cellular assay. […] The cellular assay was performed according to the following procedure.
(§1) HIV- or mock-infected MT4 cells were incubated for five days in the presence of various concentrations of the inhibitor. At the end of the incubation period, the replicating virus in the control cultures has killed all HIV-infected cells in the absence of any inhibitor. Cell viability was determined by measuring the concentration of MTT, a yellow, water soluble tetrazolium dye that is converted to a purple, water insoluble formazan in the mitochondrial of living cells only. Upon solubilization of the resulting formazan crystals with isopropanol, the absorbance of the solution was monitored at 540 nm. The values correlate directly to the number of living cells remaining in the culture at the completion of the five day incubation. The inhibitory activity of the compound was monitored on the virus-infected cells and was expressed as EC50 and EC90. These values represent the amount of the compound required to protect 50% and 90%, respectively, of the cells from the cytopathogenic effect of the virus. The toxicity of the compound was measured on the mock-infected cells and was expressed as CC50, which represents the concentration of compound required to inhibit the growth of the cells by 50%. The selectivity index (SI) (ratio CC50/EC50) is an indication of the selectivity of the anti-HIV activity of the inhibitor. Wherever results are reported as e.g. pEC50 or pCC50 values, the result is expressed as the negative logarithm of the result expressed as EC50 or CC50 respectively.

in vitro = format: cell-based; settings: human
Experimental: as §1, with “The toxicity of the compound was measured on the mock-infected cells and was expressed as CC50, which represents the concentration of compound required to inhibit the growth of the cells by 50%. The selectivity index (SI) (ratio CC50/EC50) is an indication of the selectivity of the anti-HIV activity of the inhibitor.” left out
(§2) Row WT: pEC50 against wild type HlV-LAI strain. The toxicity (Tox) is expressed as the pCC50 value as determined with mock transfected cells. ND means not determined.

HIV strain B (K103N) = assay: Antiviral cellular assay, mutant strain B; format: cell-based
Experimental: as §1
(§3) Because of the increasing emergence of drug resistant HIV strains, the present compounds were also tested for their potency against clinically isolated HIV strains harbouring several mutations (Tables 1 and 7). These mutations are associated with resistance to reverse transcriptase inhibitors and result in viruses that show various degrees of phenotypic cross-resistance to the currently commercially available drugs such as for instance AZT, didanosine, nevirapine, lamivudine and zalcibatine.

[2] = system: HIV strain J (I31L, L100I, K103N, E138G, Y181C, L214F); assay: Antiviral cellular assay, mutant strain J; format: cell-based
Experimental: as §1, §3

Mycobacterium b. = assay: Specificity versus non-viral pathogens: Mycobacterium b.; format: cell-based
[3] = system: HIV strain I (K101E, K103N); assay: Antiviral cellular assay, mutant strain I; format: cell-based
Experimental: as §1, §3

Trypanosoma c. = assay: Specificity versus non-viral pathogens: Trypanosoma c.; format: cell-based
HIV strain E (F227C) = assay: Antiviral cellular assay, mutant strain E; format: cell-based
Experimental: as §1, §3

Plasmodium f. = assay: Specificity versus non-viral pathogens: Plasmodium f.; format: cell-based
[4] = system: SIV (simian immunodeficiency virus); assay: Antiviral cellular assay, SIV; format: cell-based; settings: read-out: pEC50 towards SIV (converted)
[5] = system: HIV strain H (K103N, Y181C); assay: Antiviral cellular assay, mutant strain H; format: cell-based
Experimental: as §1, §3

HIV-2 = assay: Antiviral cellular assay, HIV-2; format: cell-based; settings: Human immunodeficiency virus 2; read-out: pEC50 towards HIV-2 (converted)
Experimental: as §1, with “The toxicity of the compound was measured on the mock-infected cells and was expressed as CC50, which represents the concentration of compound required to inhibit the growth of the cells by 50%. The selectivity index (SI) (ratio CC50/EC50) is an indication of the selectivity of the anti-HIV activity of the inhibitor.” left out
as §2

HIV strain F (Y188L) = assay: Antiviral cellular assay, mutant strain F; format: cell-based
Experimental: as §1, §3

HIV strain A (Y181C) = assay: Antiviral cellular assay, mutant strain A; format: cell-based
Experimental: as §1, §3

[6] = system: HIV strain D (L100I;K103N); assay: Antiviral cellular assay, mutant strain D; format: cell-based
Experimental: as §1, §3

Trypanosoma b. = assay: Specificity versus non-viral pathogens: Trypanosoma b.; format: cell-based
[7] = target: T1, HIV reverse transcriptase (Human immunodeficiency virus type 1 group M subtype B, UniProt P04585); assay: In vitro inhibition of HIV reverse transcriptase (kit TRK 1022); format: biochemical; settings: enzyme assay, no conversion to active metabolite needed
T1 construct: 5 μl HIV RT enzyme solution at a final enzyme activity of 15 mU per 50 μl reaction; purchased Amersham Life Sciences TRK 1022
Experimental: In vitro Inhibition of HIV Reverse Transcriptase The assay was run using kit TRK 1022 (Amersham Life Sciences) according to the manufacturer's instructions with slight modifications. Compounds were diluted in steps of ¼ in 100% DMSO and subsequently transferred to Medium A (1/50 dilution; medium A: RPMI 1640+10% FetalClone II+Gentamycin 20 mg/L). 25 μl of compound (in 2% DMSO in Medium A) or 25 μl of 2% DMSO in medium A was added to wells. To each well was added 25.5 μl master mix (master mix: 5 μl primer/template beads, 10 μl assay buffer, 0.5 μl tracer (3H-TTP), 5 μl HIV RT enzyme solution at a final enzyme activity of 15 mU per 50 μl reaction, 5 μl medium A). The plates were sealed, marked as radioactive and incubated during 4 hours at 37° C. Subsequently, 100 μl stop solution was added to each well (except R1). The radioactivity was counted in a TopCount.

[8] = system: HIV strain G (V106A, F227L); assay: Antiviral cellular assay, mutant strain G; format: cell-based
Experimental: as §1, §3

[9] = system: HIV strain K (multi-mutant incl. M41L, D67N, K103N, Y181C, L210W, T215Y); assay: Antiviral cellular assay, mutant strain K; format: cell-based
Experimental: as §1, §3

[10] = system: HIV strain C (L100I; K103N); assay: Antiviral cellular assay, mutant strain C; format: cell-based
Experimental: as §1, §3

[11] = Human immunodeficiency virus 1, MT4, read-out: EC50 value, wild-type HIV-LAI strain
[12] = Human immunodeficiency virus 1, WT, MT4 cells, read-out: pEC50 against wild type HIV-LAI strain (converted)
[13] = EC50 mutant / EC50 wild type, rounded to nearest integer

## Cn1c2ccccc2c2c1cc(C#N)c(=O)n2-c1ccc(-c2ccco2)cc1 [Compound 48]
[1]; [11]
  EC50: 1000 to 32000 nM

## CC(=O)CC1C(C#N)=C(N(C)C)N(c2ccc([N+](=O)[O-])cc2)c2c1n(C)c1ccccc21 (stereo not shown) [2-(dimethylamino)-4,5-dihydro-5-methyl-1-(4-nitrophenyl)-4-(2-oxopropyl)-1H-pyrido[3,2-b]indole-3-carbonitrile, reference compound]
[1]; [12]
  EC50: 3160 nM

## Cn1c2ccccc2c2c1cc(Cl)c(=O)n2-c1ccc(C(=O)O)cc1 [Compound 87]
[1]; [11]
  EC50: 1000 to 32000 nM

## Cn1c2ccccc2c2c1cc(C(=N)NO)c(=O)n2-c1ccc([N+](=O)[O-])cc1 [Compound 70]
[1]; [11]
  EC50: 1000 to 32000 nM

## N#Cc1cc2[nH]c3ccccc3c2n(-c2ccc(Br)cc2)c1=O [Compound 38]
[1]; [11]
  EC50: 1000 to 32000 nM

## Cn1c2ccccc2c2c1cc(C#N)c(=O)n2-c1ccc([N+](=O)[O-])cc1 [Compound 2, 5-methyl-1-(4-nitro-phenyl)-2-oxo-2,5-dihydro-1H-pyrido[3,2-b]indole-3-carbonitrile]
In vitro
  CC50 at 5 days: > 32400 nM
HIV strain B (K103N); [13]
  fold resistance, mutant B: (1)
HIV strain B (K103N); Human immunodeficiency virus 1, read-out: pEC50 towards mutant B (converted)
  EC50: 31.6 nM
[2]; [13]
  fold resistance, mutant J: (5)
[2]; Human immunodeficiency virus 1, read-out: pEC50 towards mutant J (converted)
  EC50: 126 nM
Mycobacterium b.
  EC50: > 32000 nM
[3]; [13]
  fold resistance, mutant I: (3)
[3]; Human immunodeficiency virus 1, read-out: pEC50 towards mutant I (converted)
  EC50: 63.1 nM
Trypanosoma c.
  EC50: > 32000 nM
HIV strain E (F227C); [13]
  fold resistance, mutant E: (3)
HIV strain E (F227C); Human immunodeficiency virus 1, read-out: pEC50 towards mutant E (converted)
  EC50: 63.1 nM
Plasmodium f.
  EC50: > 32000 nM
[4]
  EC50: 316 nM
[1]; Human immunodeficiency virus 1, MT4, read-out: EC50 value for wild-type HIV
  EC50: < 100 nM
[1]; [12]
  EC50: 25.1 nM
[5]; [13]
  fold resistance, mutant H: (5)
[5]; Human immunodeficiency virus 1, read-out: pEC50 towards mutant H (converted)
  EC50: 126 nM
HIV-2
  EC50: 251 nM
HIV strain F (Y188L); [13]
  fold resistance, mutant F: (2)
HIV strain F (Y188L); Human immunodeficiency virus 1, read-out: pEC50 towards mutant F (converted)
  EC50: 39.8 nM
HIV strain A (Y181C); [13]
  fold resistance, mutant A: (4)
HIV strain A (Y181C); Human immunodeficiency virus 1, read-out: pEC50 towards mutant A (converted)
  EC50: 100 nM
[6]; [13]
  fold resistance, mutant D: (2)
[6]; Human immunodeficiency virus 1, read-out: pEC50 towards mutant D (converted)
  EC50: 50.1 nM
Trypanosoma b.
  EC50: > 32000 nM
[7]
  inhibition of HIV reverse transcriptase in vitro: inhibits HIV reverse transcriptase in vitro
[8]; [13]
  fold resistance, mutant G: (3)
[8]; Human immunodeficiency virus 1, read-out: pEC50 towards mutant G (converted)
  EC50: 63.1 nM
[9]; [13]
  fold resistance, mutant K: (4)
[9]; Human immunodeficiency virus 1, read-out: pEC50 towards mutant K (converted)
  EC50: 100 nM
[10]; [13]
  fold resistance, mutant C: (3)
[10]; Human immunodeficiency virus 1, read-out: pEC50 towards mutant C (converted)
  EC50: 79.4 nM

## O=c1ccc2[nH]c3ccccc3c2n1-c1ccc([N+](=O)[O-])cc1 [Compound 66]
[1]; [11]
  EC50: 1000 to 32000 nM

## N#Cc1cc2[nH]c3ccccc3c2n(-c2cccc([N+](=O)[O-])c2)c1=O [Compound 42]
[1]; [11]
  EC50: 1000 to 32000 nM

## CCCCn1c2ccccc2c2c1cc(C#N)c(=O)n2-c1ccc([N+](=O)[O-])cc1 [Compound 8]
[1]; [11]
  EC50: < 1000 nM

## Cn1c2ccccc2c2c1cc(C#N)c(=O)n2-c1ccc(N)cc1 [Compound 89]
[1]; [11]
  EC50: > 32000 nM

## Cn1c2ccccc2c2c1cc(Br)c(=O)n2-c1ccc([N+](=O)[O-])cc1 [Compound 68]
[1]; [11]
  EC50: < 1000 nM

## CCn1c2ccccc2c2c1cc(C#N)c(=O)n2-c1ccc([N+](=O)[O-])cc1 [Compound 9]
[1]; [11]
  EC50: < 1000 nM

## Cn1c2ccccc2c2c1cc(C#N)c(=O)n2-c1ccc(Br)cc1 [Compound 39]
[1]; [11]
  EC50: 1000 to 32000 nM

## Cn1c2ccccc2c2c1ccc(=O)n2-c1ccc(/C(N)=N/O)cc1 [Compound 97]
[1]; [11]
  EC50: 1000 to 32000 nM

## Cn1c2ccccc2c2c1cc(C#N)c(=O)n2-c1ccc(F)cc1 [Compound 44]
[1]; [11]
  EC50: > 32000 nM
